Measured values from patent publication US20090023810A1, “METHODS OF TRANSLATION AND/OR INFLAMMATION BLOCKADE” (priority 2007, published 2009).

Tests used:
HeLa cells = assay: Stress granule (SG) formation in HeLa cells, immunocytochemistry; assay type: cell-based; conditions: pretreated with 1 μM for 24 hours, then 50 μM prostaglandin 1 hour, FIG. 3C
PPARγ = target: T1, PPARγ (Homo sapiens, UniProt P37231); assay: PPARγ reporter (PPRE) luciferase assay in 293T cells; assay type: cell-based; conditions: 1 μM 24 hours before 10 μM rosiglitazone or troglitazone 12 hours, FIG. 3D
T1 construct: 293T cells that were transfected with a plasmid (1 μg) expressing a PPARγ reporter gene; endogenous in cells; host or cells: 293T
T1 sequence (P37231 1-505): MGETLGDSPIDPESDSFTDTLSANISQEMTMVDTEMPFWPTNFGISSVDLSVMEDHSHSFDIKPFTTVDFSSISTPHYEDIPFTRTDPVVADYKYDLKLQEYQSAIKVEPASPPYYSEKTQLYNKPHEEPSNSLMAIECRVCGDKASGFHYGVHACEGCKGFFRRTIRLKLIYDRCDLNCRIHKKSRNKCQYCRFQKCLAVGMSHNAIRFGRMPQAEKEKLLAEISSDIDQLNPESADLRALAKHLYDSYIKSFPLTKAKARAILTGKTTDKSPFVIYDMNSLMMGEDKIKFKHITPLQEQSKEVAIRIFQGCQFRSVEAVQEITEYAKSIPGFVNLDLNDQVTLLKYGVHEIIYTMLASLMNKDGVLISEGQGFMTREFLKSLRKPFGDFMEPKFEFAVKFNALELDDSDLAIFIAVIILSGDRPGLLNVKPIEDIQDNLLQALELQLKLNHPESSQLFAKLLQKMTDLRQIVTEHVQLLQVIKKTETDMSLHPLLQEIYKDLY
Description: Luciferase assays were performed as described elsewhere (Kim et al., 2005, which is hereby incorporated by reference for all purposes as if fully set forth herein).
293T cells that were transfected with a plasmid (1 μg) expressing a PPARγ reporter gene. After transfection, cells were pretreated or not pretreated with 1 μM of GW9662 for 24 hours, before being treated with 10 μM of rosiglitazone (Rosi) or troglitazone (Tro) for 12 hours. The obtained relative luciferase activities in the cell extracts normalized to a mock-treated control extract are shown in FIG. 3D.

eIF4A = target: T2, eIF4A (Homo sapiens, UniProt P60842); conditions: cited from earlier work
T2 construct: His; gift of Dr. Nadejda Korneeva, Louisiana State University
T2 sequence (P60842 whole entry): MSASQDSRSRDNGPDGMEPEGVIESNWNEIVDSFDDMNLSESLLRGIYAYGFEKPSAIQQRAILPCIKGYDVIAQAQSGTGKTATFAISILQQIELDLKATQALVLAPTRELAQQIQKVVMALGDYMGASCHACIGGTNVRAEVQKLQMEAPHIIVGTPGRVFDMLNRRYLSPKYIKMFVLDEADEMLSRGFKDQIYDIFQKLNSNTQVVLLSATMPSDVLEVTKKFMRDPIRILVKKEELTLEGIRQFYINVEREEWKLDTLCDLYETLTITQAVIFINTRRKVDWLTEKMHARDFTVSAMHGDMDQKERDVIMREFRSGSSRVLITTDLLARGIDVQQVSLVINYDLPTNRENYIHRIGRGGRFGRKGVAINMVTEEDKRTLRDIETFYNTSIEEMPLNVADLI

[1] = system: RAW264.7 macrophage cells; assay: Cap-dependent vs CrPV IRES luciferase mRNA translation in LPS-treated RAW264.7 cells; assay type: cell-based; conditions: RAW264.7, 24 hours at indicated concentrations or 10 μg/ml for indicated times, FIG. 4D, 4E
Description: In order to confirm that the translational inhibition by 15d-PGJ2 occurs at physiological conditions, we tested the effect of prolonged treatment of lipopolysaccharide (LPS) on RAW264.7 that produces PGD2 and 15d-PGJ2 upon treatment of LPS through a COX-2-dependent pathway (Shibata et al., 2002). In FIGS. 4D-4F, the effects of LPS on translation in RAW264.7 macrophage cells are shown. RAW264.7 cells were incubated with LPS for 24 hours at the indicated concentrations. After the LPS treatment, mRNAs (1 μg) containing Renilla luciferase translated in a cap-dependent manner and mRNAs (1 μg) containing firefly luciferase under the control of cricket paralysis virus (CrPV) IRES were co-transfected into the cells. Luciferase activities were measured 3 hours post-transfection, and the obtained results are shown in FIG. 4D, wherein columns indicate ratios of relative luciferase activities (Renilla luciferase/Firefly luciferase) in the cell extracts normalized to that in a mock-treated control extract.
Further, RAW264.7 cells were incubated with LPS (10 μg/ml) for the times indicated. Transfection of mRNAs and analyses of luciferase activities were performed as described in FIG. 4D, and the obtained results are shown in FIG. 4E. […]

O=C(Nc1ccccc1)c1cc([N+](=O)[O-])ccc1Cl [GW9662]
Effect of pretreatment on SG formation induced by 15d-PGJ2 and PGA1 (HeLa cells): had no effect on SG formation induced by 15d-PGJ2 and PGA1 | PPARγ-mediated PPRE activation (PPARγ): completely blocked

CC(/C=C/C(C)=C/[C@@H]1Cc2nc(cs2)[C@@H](C)C[C@@H](N)CC(=O)O[C@@H](C)C/C(C)=C/C=C\C(=O)O1)=C\CN(C)C [PatA, pateamine A]
SG formation (eIF4A; Dang et al., 2006): induces formation of SGs independently of eIF2F phosphorylation | Translation (eIF4A; Low et al., 2005): could block translation by inactivating eIF4A

lipopolysaccharide [LPS]
Cap-dependent translation (Renilla/firefly luciferase ratio) [1]: inhibited
